Laboratory results published in patent US20070149580A1, “USE OF PEROXISOME PROLIFERATOR ACTIVATED RECEPTOR DELTA AGONISTS FOR THE TREATMENT OF MS AND OTHER DEMYELINATING DISEASES” (AVENTIS PHARMACEUTICALS INC., priority 2004, published 2007).

What was measured:
human RXR receptor = assay: Cellular human RXR receptor luciferase reporter assay; type: cell-based; details: Retinoid X receptor
Experimental: Determination of EC50 Values in the Cellular Human RXR Receptor Assay
Cell Based RXR Assay Protocol
To perform cell based assays a luciferase assay is performed in 96 well plates as follows: […]
• Aspirate medium from cells • Freeze plates at −20° C. (optional) • Thaw plates for 30 min (if necessary) • Add 50 μl Bright-Glo-Luciferase Assay Reagent (Promega, Cat. No. E2650) • Incubate for 10 min in the dark • Measure luminescence 2 sec per well (Wallac Microbeta) Data Analysis […]

[1] = test system: mixed cultures of human oligodendrocytes; assay: Human oligodendrocyte differentiation assay (O4 immunopositive cell count); type: cell-based; details: FIGS. 5 and 6
Experimental: • 1. Human neurospheres collected from E19.5-[…] human embryo cortex) are cultured for 2 weeks in progenitor media: […] Neurospheres are dissociated with 20 U/ml papain at 37° C. for 30-50 min. • 3. Cells are plated onto PDL coated dishes at density of 50,000-100,000 cell/well in progenitor media containing PDGF/FGF and incubated at 37° C. with 5-6% CO2. • 4. Media and growth factors are replenished every 48 hr. Human Culture Compound Treatment: • 1. 24 to 48 hr after plating remove the old medium and add compounds in fresh medium (with mitogen) • 2. Compound dose response evaluations are performed at 3-6 different concentrations (10 µM, 1 µM, 100 nM, 10 nM, 1 nM, and 0.1 nM) • 3. […] Sequential staining is performed on oligodendrocyte populations with increasing degrees of cellular differentiation, as determined by days in vitro without PDGF and FGF. • 2. […] Colormetric visualization of the BrdU immunoreactivity is developed with DAB and total cell numbers are assessed using the counter-stain hematoxylin. • 4. BrdU immunopositive cells are counted by two independent observers. Rat/Mouse/Human Culture Image Analysis: Fluorescent microscopy is used to quantitate the extent of oligodendrocyte differentiation after compound exposure. […] Manual Cell Counting: Four fields are randomly selected for each experimental condition and 500-600 cells are counted in each field. […]

| SMILES | Human PPAR RXR EC50 (human RXR receptor) | number of O4 immunopositive cells [1] |
| --- | --- | --- |
| Cc1cc(SCc2sc(-c3ccc(C(F)(F)F)cc3)nc2C)ccc1OCC(=O)O [Compound 1] | No increase | increase |
| CCCc1c(OCCCOc2ccc(OCC(=O)O)cc2)ccc(C(C)=O)c1O [Compound 2] | No increase | increase |
